# Laboratory results published in patent US9387231B2, “Compositions comprising a Brd4 antagonist and methods for the treatment of HIV” (THE CHILDREN'S HOSPITAL OF PHILADELPHIA, priority 2011, dated 2016).
# Assays:
# Assay type in all cases: cell-based
# HIV LTR = test: Reactivation of the HIV LTR in latently infected J-Lat clones (GFP by flow cytometry)
# Experimental: (§1) GFP expression was measured by flow cytometry. FIGS. 3B and 3C shown the percentage of cells positive for GFP (FIG. 3B) and the mean MFI of GFP (FIG. 3C) in latently infected cell lines, J-Lat clones 82, A72, A7, A2, and A1, at 16 hours after TNFα or PHA was added in the cultures in the presence of JQ1(+) or JQ1(−). […] GFP expression in cells was measured by flow cytometry and is indicated as percent of GFP+ cells in gated live cell populations. An average of 5 experiments is shown. * p<0.05, ** p<0.01, *** p<0.001. […] Average of 3 experiments is shown. * p<0.05. For FIG. 3F, J-Lat A2 and A72 cells were reactivated with TNFα (20 ng/ml) or HIV Tat protein (50 μg/ml) in the presence of JQ1(+) or JQ1(−) for 16-18 hours, and GFP expression in cells was measured by flow cytometry. One representative experiment is shown. In each dot plot, non-underlined numbers indicate percentage of GFP+ cells and underlined numbers indicate mean fluorescence of GFP (MFI).
# (§2) Next, the effect of JQ1 on activation of the HIV LTR was tested using a latently infected Jurkat-derived cell clone, J-Lat clone A2. GFP expression in J-Lat clone A2 is induced upon reactivation with tumor necrosis factor-alpha (TNFα) or phytohaemagglutinin (PHA).
# To further study the mechanism of how JQ1 drives reactivation of HIV latency, HIV latently infected T-cell lines—J-Lat clones A1, A2, A7, and A72—were utilized. The effect of JQ1(+) on reactivation of HIV latency in these cell lines were confirmed. TNFα (20 ng/ml) or PHA (1.5 μg/ml) was added to cultures of J-Lat clones in the presence of 1 μM JQ1(+) or JQ1(−). After 16 hours, expression of GFP was measured by flow cytometry. […] In the presence of HIV Tat, BET antagonism enhances Tat-driven transcription of the HIV LTR in J-Lat clones A2 and A72 (FIG. 3F; underlined numbers indicate mean GFP fluorescence, non-underlined numbers indicate percent of GFP+ cells). […] Displacement of Brd4 from chromatin by JQ1(+) may cause conformational change in the chromatin, exposing NF-κb binding sites, leading to increased HIV transcription and reactivation of latency.
# [1] = system: RNA polymerase II binding to the HIV LTR; test: Chromatin immunoprecipitation (ChIP) of HIV LTR DNA, RNA polymerase II; details: CEMss LTR-GFP cells infected with HIV NL4-3, days 3 to 5, compared to JQ1(−), p<0.001
# Experimental: (§3) FIGS. 7A and 7B show the fold increase in the binding of IgG, RNA polymerase II, or Cdk9 to the HIV LTR in the presence of JQ1(+) or JQ1(−) for early (FIG. 7A) and late (FIG. 7B) HIV-1 transcript. ***p<0.001.
# (§4) To further investigate the mechanism of JQ1(+) reactivation of HIV transcription in latently infected T-cells, the binding of RNA polymerase II (PoI II) and p-TEFb (Cdk9/Cyclin T) to the promoter region of HIV LTR was measured using chromatin immunoprecipitation (ChIP). A CEMss reporter cell line stably transfected with GFP under the control of the HIV LTR promoter was used. CEMss LTR-GFP cells were infected with HIV NL4-3 in the presence of JQ1(+) or JQ1(−). At days 3 to 5 of infection, cells were collected and sheared, and formaldehyde cross-linked chromatin extracts were immunoprecipitated with antibodies specific for IgG, RNA polymerase II, or Cdk9. The abundance of HIV LTR DNA in immunoprecipitates was assessed by qPCR with two sets of primers specific for early or late regions of the HIV LTR.
# HIV-1 LTR promoter = test: Activation of the HIV LTR in CEMss LTR-GFP reporter cells (GFP by flow cytometry)
# Experimental: CEMss LTR-GFP cells were infected with NL43 and cultured in the presence of the BET antagonists JQ1(+) (1 μM) or the control enantiomer JQ1(−). GFP expression in cells was examined by flow cytometry. A representative of three experiments is shown. FIG. 2B provides a graph showing GFP expression in cells when cultured with different amounts of JQ1, as determined by flow cytometry. 0.25 μM of JQ1(+) was sufficient to dramatically increase the expression of GFP in NL43 infected CEMss LTR-GFP cells. FIGS. 2C and 2D show percentage of GFP expression (FIG. 2C) and mean fluorescence of GFP (MFI; FIG. 2D) in CEMss LTR-GFP cells cultured in the presence of JQ1(+) or JQ1(−) (1 μM), and different amount of HIV-1 Tat. FIG. 2E provides dot plots of CEMss LTR-GFP cells were cultured with increasing amounts of HIV Tat (0, 8, 16 or 32 μg/ml) in the presence of JQ1(+) or JQ1(−) (1 μM) for 1 day. Non-underlined numbers indicate percentage of GFP and underlined numbers indicate mean fluorescence of GFP (MFI).
# as §1
# BET antagonists also drive activation of the HIV LTR. Specifically, the effects of JQ1 on transcription from the HIV LTR were tested. CEMss LTR-GFP cells (a reporter cell line stably transfected with GFP under the control of the HIV-1 LTR promoter) were infected with NL43 and cultured in the presence of BET antagonists or controls. GFP expression was measured at days 0, 1, 2, 3, and 6 post-infection. GFP expression was higher in the presence of the BET inhibitor (JQ1) compared to controls (FIG. 2A). Further, by varying the amount of JQ1, it was determined that 0.25 μM of JQ1(+) was sufficient to dramatically increase Tat-driven HIV-1 transcription (FIG. 2B). CEMss LTR-GFP cells were also cultured in the presence of JQ1(+) or JQ1(−) (1 μM) and different amount of HIV-1 Tat (0-32 μg/ml). […] FIG. 2E provides dot plots of the experiments.
# as §2
# [2] = system: Cdk9 binding to the HIV LTR; test: Chromatin immunoprecipitation (ChIP) of HIV LTR DNA, Cdk9; details: CEMss LTR-GFP cells infected with HIV NL4-3, days 3 to 5, compared to JQ1(−), p<0.001
# Experimental: as §3, §4
compound,measurement,setting,value
"Cc1sc2c(c1C)C(c1ccc(Cl)cc1)=N[C@@H](CC(=O)OC(C)(C)C)c1nnc(C)n1-2 [JQ1(+), tert-butyl 2-((6S)-4-(4-chlorophenyl)-2,3,9-trimethyl-6H-thieno[3,2-f][1,2,4]triazolo[4,3-a][1,4]diazepin-6-yl)acetate]",GFP expression (% positive cells and mean fluorescence intensity),"HIV LTR; J-Lat clone A2, with TNFα or PHA, 0.5 μM, 16 hours, versus JQ1(−) control",higher
same,Tat-driven transcription of the HIV LTR (GFP),"HIV LTR; J-Lat clones A2 and A72, HIV Tat protein 50 μg/ml, 16-18 hours",enhances
same,GFP expression with TNFα,"HIV LTR; J-Lat clones A72 and A2, TNFα 20 ng/ml plus compound 1 μM",dramatically enhanced
same,Percent of cells expressing GFP,"HIV LTR; J-Lat clones, compound alone, 1 μM, 16-18 hours",increased
same,Binding of RNA Pol II to the HIV LTR,[1],significantly increased
same,GFP expression,"HIV-1 LTR promoter; CEMss LTR-GFP cells infected with NL43, 1 μM, compared to controls, days 0-6",higher
same,TNFα-induced activation of the HIV LTR,"HIV-1 LTR promoter; CEMss LTR-GFP cells, 20 ng/ml TNFα, 1 μM, 1 day, absence of Tat",promotes
same,Mean fluorescence intensities (MFI) of GFP,"HIV-1 LTR promoter; CEMss LTR-GFP cells, 1 μM, with 8, 16 or 32 μg/ml HIV-1 Tat",dramatically enhanced
same,Amount sufficient to dramatically increase Tat-driven HIV-1 transcription (GFP expression),HIV-1 LTR promoter; NL43 infected CEMss LTR-GFP cells,0.25 µM
same,Binding of Cdk9 to the HIV LTR,[2],significantly increased
